In patent publication US7388008B2, “Lysine based compounds” (priority 2004, dated 2008):

Test: Bioavailability: plasma concentration after single oral dose in rats
Format: in vivo, male Sprague-Dawley rats
Settings: for AUC: 50 mg/Kg po, rat plasma; for Delivery of parent drug (PL-100, PL-337) compared to non-aqueous formulations of PL-100 and PL-337: aqueous dosing; for Delivery of parent drug (PL-100, PL-337) compared to non-aqueous formulations of PL-100 and PL-337 / Administered compound detected in the blood samples: 50 mg/kg po, rat; for Administered compound detected in the blood samples: delivered as aqueous solutions
Protocol: To assess the extent of in vivo cleavage of the phosphate group from the putative compounds, PL-100, PL-462 (based on PL-100), PL-337 and PL-515 (based on PL-337) compounds were administered po (50 mg/kg) to male Sprague-Dawley rats and their plasma concentration measured at different time intervals post-administration. All test articles (PL-100, PL-462, PL-337 and PL-515) were prepared in different vehicle at the final concentration of 25 mg/mL. The vehicle composition is as follows: (1) 20% ethanol; 50% propylene glycol; 0.05% w/v Tween 20 and water (Mix); (2) PBS buffer (PBS). Test articles were administered to male Sprague-Dawley rats at a single oral dose of 50 mg/kg. Each article was tested in three rats. Blood samples (0.2–0.3 mL) were collected at the post-dose time of 10, 20, 40, 60, 120, 180 and 360 minutes. The harvested blood was centrifuged to isolate plasma. The resulting plasma was separated and stored at −70° C. Plasma samples together with standards and quality control samples were treated to precipitate proteins, then analyzed by HPLC-MS, for the presence of PL-462, PL-100, PL-515 and PL-337.

[1] = vehicle PBS, parent drug (PL-100 or PL-337) detected
[2] = vehicle Mix (20% ethanol; 50% propylene glycol; 0.05% w/v Tween 20 and water)

Row | Structure (SMILES) | AUC [1] [μg/hr * ml] | Delivery of parent drug (PL-100, PL-337) compared to non-aqueous formulations of PL-100 and PL-337 | Administered compound detected in the blood samples | AUC [2] [μg/hr * ml]
1 | COC(=O)N[C@H](C(=O)NCCCC[C@@H](COP(=O)(O)O)N(CC(C)C)S(=O)(=O)c1ccc(N)cc1)C(c1ccccc1)c1ccccc1.[Na] [PL-462, (1S,5S)-(1-{5-[(4-amino-benzenesulfonyl)-isobutyl-amino]-6-phosphonooxy-hexylcarbamoyl}-2,2-diphenyl-ethyl)-carbamic acid methyl ester sodium salt] | 0.816 | equivalent to slightly superior | None | 
2 | COC(=O)N[C@H](C(=O)NCCCC[C@@H](COP(=O)(O)O)N(CC(C)C)S(=O)(=O)c1ccc(N)c(F)c1)C(c1ccccc1)c1ccccc1 [PL-515, (1S,5S)-(1-{5-[(4-amino-3-fluoro-benzenesulfonyl)-isobutyl-amino]-6-phosphonooxy-hexylcarbamoyl}-2,2-diphenyl-ethyl)-carbamic acid methyl ester] | 1.075 | equivalent to slightly superior | None | 
3 | COC(=O)N[C@H](C(=O)NCCCC[C@@H](CO)N(CC(C)C)S(=O)(=O)c1ccc(N)c(F)c1)C(c1ccccc1)c1ccccc1 [PL-337, (1-{5-[(4-amino-3-fluoro-benzenesulfonyl)-isobutyl-amino]-6-hydroxy-hexylcarbamoyl}-2,2-diphenyl-ethyl)-carbamic acid methyl ester] |  |  |  | 1.180
4 | COC(=O)N[C@H](C(=O)NCCCC[C@@H](CO)N(CC(C)C)S(=O)(=O)c1ccc(N)cc1)C(c1ccccc1)c1ccccc1 [PL-100, (1S,5S)-(1-{5-[(4-amino-benzenesulfonyl)-isobutyl-amino]-6-hydroxy-hexylcarbamoyl}-2,2-diphenyl-ethyl)-carbamic acid methyl ester] |  |  |  | 0.675
